The term pEC50 denotes −log10 of the EC50, conventionally taken in molar units.

pEC50: −log10 of the molar value. Structures can show the parent of a compound that is named as a salt.

We go through 18 compounds from patent US9062028B2, “Bicyclic nitrogen containing heteroaryl TGR5 receptor modulators” (Bristol-Myers Squibb Company, priority 2011, dated 2015).

This test concerns the target T1, recombinant human TGR5 (Homo sapiens, UniProt Q8TDU6).
T1 construct: expressed in transfected cells
T1 sequence (Q8TDU6 1-330): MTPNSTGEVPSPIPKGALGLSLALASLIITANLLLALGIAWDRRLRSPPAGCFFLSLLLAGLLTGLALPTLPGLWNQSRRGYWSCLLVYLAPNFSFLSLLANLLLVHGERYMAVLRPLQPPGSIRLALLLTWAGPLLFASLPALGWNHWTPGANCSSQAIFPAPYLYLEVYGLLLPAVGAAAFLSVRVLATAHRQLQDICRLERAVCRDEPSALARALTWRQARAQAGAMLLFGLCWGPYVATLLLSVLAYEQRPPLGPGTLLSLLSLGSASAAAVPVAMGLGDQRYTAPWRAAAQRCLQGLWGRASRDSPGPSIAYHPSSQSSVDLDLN
Kind of test: cAMP assay (cAMP accumulation, HTRF) in CHOK1 cells stably expressing TGR5. As to conditions: CHOK1 cells stably expressing human TGR5, 30 minutes at RT, 1% DMSO. In kind it is cell-based. The gist of the method: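 Agonist-induced cAMP accumulation: stable TGR5-CHOK1 cells treated 30 min at RT with compound (1% DMSO) plus 0.1 mM IBMX. HTRF ratio converted to nM cAMP via standard curve; EC50 from four-parameter logistic fit, midpoint between baseline and maximum.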
(Cyclic AMP is a second messenger, typically raised through Gs and lowered through Gi signalling.)
Consider `Cc1c(Cl)cccc1OCCCC(=O)N1CCSc2c(-c3cnn(Cc4cccc(C(=O)O)c4)c3)cccc21` [Example 354, 3-((4-(4-(4-(3-Chloro-2-methylphenoxy)butanoyl)-3,4-dihydro-2H-benzo[b] [1,4]thiazin-8-yl)-1H-pyrazol-1-yl)methyl)benzoic acid], for which the pEC50 was 7.40.
To `Cc1c(Cl)cccc1OCCCC(=O)N1CCSc2c(-c3cnn(Cc4c(F)cc(C(=O)O)cc4Cl)c3)cccc21` [Example 358, 3-Chloro-4-((4-(4-(4-(3-chloro-2-methylphenoxy)butanoyl)-3,4-dihydro-2H-benzo[b][1,4]thiazin-8-yl)-1H-pyrazol-1-yl)methyl)-5-fluorobenzoic acid] belongs 7.37.
To `Cc1cccc(OCCCC(=O)N2CCCc3c(-c4cnn(Cc5cncc(C(=O)O)c5)c4)cccc32)c1C` [Example 359, 5-((4-(1-(4-(2,3-Dimethylphenoxy)butanoyl)-1,2,3,4-tetrahydroquinolin-5-yl)-1H-pyrazol-1-yl)methyl) nicotinic acid, TFA salt] belongs 5.78.
As to `COC(=O)c1ccc(Cl)c(Cn2cc(-c3cccc4c3SCCN4C(=O)OCCOc3cccc(Cl)c3C)cn2)c1` [Example 367, 2-(3-Chloro-2-methylphenoxy)ethyl 8-(l-(2-chloro-5-(methoxycarbonyl)benzyl)-1H-pyrazol-4-yl)-2H-benzo[b][1,4]thiazine-4(3H)-carboxylate], the pEC50 was 6.73.
The figure for `Cc1c(Cl)cccc1OCCOC(=O)N1CCSc2c(-c3cnn(Cc4cccc(OCC(=O)O)c4)c3)cccc21` [Example 375, 2-(3-((4-(4-((2-(3-Chloro-2-methylphenoxy)ethoxy)carbonyl)-3,4-dihydro-2H-benzo[b][1,4]thiazin-8-yl)-1H-pyrazol-1-yl)methyl)phenoxy)acetic acid] is 6.73; for `Cc1cccc(OCCCC(=O)N2CCCOc3c(-c4cnn(Cc5c(F)cc(C(=O)O)cc5Cl)c4)cccc32)c1C` [Example 392, 3-Chloro-4-((4-(5-(4-(2,3-dimethylphenoxy)butanoyl)-2,3,4,5-tetrahydrobcnzo[b] [1,4]oxazepin-9-yl)-1H-pyrazol-1-yl)methyl)-5-fluorobenzoic acid] it is 6.72; for `[2H]C([2H])(COC(=O)N1CCCOc2c(-c3cnn(Cc4c(F)cc(C(=O)O)cc4Cl)c3)cccc21)Oc1cccc(Cl)c1C` [Example 418, 3-Chloro-4-((4-(5-((2-(3-chloro-2-methylphenoxy)-2,2-dideuteroethoxy)carbonyl)-2,3,4,5-tetrahydrobenzo[b][1,4]oxazepin-9-yl)-1H-pyrazol-1-yl)methyl)-5-fluorobenzoic acid] it is 6.73.
To `Cc1cccc(OCCCC(=O)N2CCCc3c(-c4cnn(Cc5cccc(-c6nnn(CC(=O)O)n6)c5)c4)cccc32)c1C` [Example 430, 2-(5-(3-((4-(1-(4-(2,3-Dimethylphenoxy)butanoyl)-1,2,3,4-tetrahydroquinolin-5-yl)-1H-pyrazol-1-yl)methyl)phenyl)-2H-tetrazol-2-yl) acetic acid] belongs 6.71.
The figure for `Cc1c(Cl)cccc1OCCOC(=O)N1C[C@@H]2C[C@@H]2c2c(-c3cnn(Cc4cccc(C(C)(C)O)c4)c3)cccc21` [Example 434, (1aR,7bS)-2-(3-Chloro-2-methylphenoxy)ethyl 7-(1-(3-(2-hydroxypropan-2-yl)benzyl)-1H-pyrazol-4-yl)-1a,2-dihydro-1H-cyclopropa [c]quinoline-3(7bH)-carboxylate] is 6.74; for `Cc1c(Cl)cccc1OCCOC(=O)N1C[C@@H]2C[C@@H]2c2c(-c3cnn(Cc4ccc(C(=O)O)cc4Cl)c3)cccc21` [Example 436, 3-Chloro-4-((4-((1aR,7bS)-3-((2-(3-chloro-2-methylphenoxy)ethoxy)carbonyl)-1a,2,3,7b-tetrahydro-1H-cyclopropa[c]quinolin-7-yl)-1H-pyrazol-1-yl)methyl)benzoic acid] it is 6.77.
`COC(=O)c1ccc(O)c(Cn2cc(-c3cccc4c3[C@H]3C[C@H]3CN4C(=O)OCCOc3cccc(Cl)c3C)cn2)c1` [Example 447, (1aR,7bS)-2-(3-Chloro-2-methylphenoxy)ethyl 7-(1-(2-hydroxy-5-(methoxycarbonyl)benzyl)-1H-pyrazol-4-yl)-1a,2-dihydro-1H-cyclopropa[c] quinoline-3(7bH)-carboxylate]: the negative-log EC50 (pEC50) was 5.80.
Consider `Cc1c(Cl)cccc1OCCOC(=O)N1C[C@@H]2C[C@@H]2c2c(-c3cnn(Cc4cc(OCCOCC(=O)O)ccc4Cl)c3)cccc21` [Example 448, 2-(2-(4-Chloro-3-((4-((1aR,7bS)-3-((2-(3-chloro-2-methylphenoxy)ethoxy)carbonyl)-1a,2,3,7b-tetrahydro-1H-cyclopropa[c]quinolin-7-yl)-1H-pyrazol-1-yl)methyl)phenoxy)ethoxy)acetic acid], for which the negative-log EC50 (pEC50) was 6.74.
To `Cc1cccc(OCCCC(=O)N2CCCc3c(-c4cnn(Cc5ccc[n+](CC(=O)O)c5)c4)cccc32)c1C` [Example 466, 1-(Carboxymethyl)-3-((4-(1-(4-(2,3-dimethylphenoxy)butanoyl)-1,2,3,4-tetrahydroquinolin-5-yl)-1H-pyrazol-1-yl)methyl)pyridinium, TFA salt] belongs 5.41.
To `Cc1cccc(OCCCC(=O)N2CCCc3c(-c4cnn(Cc5ccc[n+](C)c5)c4)cccc32)c1C` [Example 467, 3-((4-(1-(4-(2,3-Dimethylphenoxy)butanoyl)-1,2,3,4-tetrahydroquinolin-5-yl)-1H-pyrazol-1-yl)methyl)-1-methylpyridinium] belongs 5.53; to `Cc1cccc(OCCCC(=O)N2CCCc3c(-c4cnn(Cc5cccc(N(C)C(=O)NCC[N+](C)(C)C)c5)c4)cccc32)c1C` [Example 471, 2-(3-(3-((4-(1-(4-(2,3-Dimethylphenoxy)butanoyl)-1,2,3,4-tetrahydroquinolin-5-yl)-1H-pyrazol-1-yl)methyl)phenyl)-3-methylureido)-N,N,N-trimethylethanaminium, TFA salt], 5.66; to `Cc1cccc(OCCCC(=O)N2CCCc3c(-c4cnn(Cc5cccc(N(C)C(=O)N(C)CC[N+](C)(C)C)c5)c4)cccc32)c1C` [Example 472, 2-(3-(3-((4-(1-(4-(2,3-Dimethylphenoxy)butanoyl)-1,2,3,4-tetrahydroquinolin-5-yl)-1H-pyrazol-1-yl)methyl)phenyl)-1,3-dimethylureido)-N,N,N-trimethylethanaminium, TFA salt], 5.73.
The figure for `Cc1cccc(OCCCC(=O)N2CCCc3c(-c4cnn(Cc5cccc(C(=O)N(CC(=O)O)CC(=O)O)c5)c4)cccc32)c1C` [Example 475, 2,2′-(3-((4-(1-(4-(2,3-Dimethylphenoxy)butanoyl)-1,2,3,4-tetrahydroquinolin-5-yl)-1H-pyrazol-1-yl)methyl)benzoylazanediyl)diacetic acid] is 5.59; for `Cc1cccc(OCCCC(=O)N2CCCc3c(-c4cnn(Cc5cccc(C(=O)N(C)[C@@H](CC(=O)O)C(=O)O)c5)c4)cccc32)c1C` [Example 481, (S)-2-(3-((4-(1-(4-(2,3-Dimethylphenoxy)butanoyl)-1,2,3,4-tetrahydroquinolin-5-yl)-1H-pyrazol-1-yl)methyl)-N-methylbenzamido)succinic acid] it is 5.81.
